≈ marks a conversion by molar mass, not a printed value. Where only a bound is given, the exact number is not on record here.

Data on seven compounds can be found in paper PMC6632015, “Niosomal Nanocarriers for Enhanced Skin Delivery of Quercetin with Functions of Anti-Tyrosinase and Antioxidant” (Molecules, 2019).

Data set [1] relates to tyrosinase. As to the kind of experiment: In vitro tyrosinase inhibition (dopachrome formation at 493 nm, L-tyrosine substrate). The note with it: for IC50 anti-tyrosinase activity: tyrosinase 120 unites/mL, phosphate buffer pH 6.8, 30 °C, L-tyrosine. Format: biochemical. As to the method:
The tyrosinase inhibition assay was performed based on a previous study with slight modification. The activity of tyrosinase inhibition was determined using a spectrophotometer by monitoring dopachrome formation at 493 nm. […] After incubation at 30 °C for 10 min, 0.5 mL of L-tyrosine was added to the systems. The reaction systems were incubated at 30 °C for 20 min and absorbance was determined at 493 nm. […] The degree of inhibition of the sample was expressed as 50% inhibition concentration (IC50).
The inhibitory effects of the test samples were expressed as the percentage of tyrosinase inhibition as follows:(1) Tyrosinase inhibition=(A−B)−(C−D)/(A−B)×100% where A and B denote the absorbance at 493 nm of the mixture without the test sample (L-tyrosine mixed with the enzyme in the buffer; the control) and without the test sample or the enzyme (L-tyrosine in the buffer; the blank), respectively; C and D denote those with the test sample and enzyme (L-tyrosine mixed with the enzyme and test sample in the buffer; the reaction mixture) and without the enzyme (L-tyrosine mixed with the test sample in the buffer; the blank version of C).

A short description of data set [2]: DPPH radical scavenging activity. The note with it: DPPH 30 μg/mL, absorbance at 515 nm. The method, then: The antioxidant activity of flavonoids was measured by the bleaching rate of DPPH, reported by Blois. In its radical form, DPPH absorbs at the wavelength of 515 nm, but its absorption decreases upon reduction by an antioxidant or a radical compound. The DPPH radical scavenging activity of flavonoids was evaluated according to the method described by Rui Yang, with some modifications. Briefly, 5 mL of DPPH (30 μg/mL) was mixed with 0.1 mL of absolute ethyl alcohol and 0.1 mL of samples with different concentrations. Then, the absorbance of the mixtures was determined at 515 nm. The DPPH radical scavenging activity was calculated as follows: (2) DPPH radical scavenging activity = A0−Ai/A0×100% where A0 and Ai denote the absorbance at 515 nm of the control (DPPH mixed with absolute ethyl alcohol) and the test samples (DPPH mixed with flavonoids).

The nature of data set [3]: Water solubility of quercetin and solubility in niosomes. Type of data set: physicochemical. The method, then:
The water solubility of quercetin was measured with 15 mL of purified water, phosphate buffers with different pH values (pH 5.0, 6.0, 6.8, 7.4, 8.0), and excess quercetin, and placed into vials. The vials were shaken for 24 h in a 37 °C water bath and the supernatant was determined by HPLC after centrifugation.

Data set [4] is described as follows: Solubility of quercetin in different release medium. Type of data set: physicochemical. As to the method: An aqueous solutions of 15 mL of Tween80 and SDS at different concentrations and excess quercetin were placed into each of the vials. Vials were shaken in a 32 °C water bath for 24 h. After 24 h, 5 mL suspension was centrifuged at 3000 rmp for 15 min and 0.2 mL of the supernatant was diluted to 2 mL and determined using HPLC.

Data set [5] in a line: Ex vivo drug permeation through rat abdominal skin (transdermal diffusion device). The note with it: 0.6% Tween80 receptor medium, up to 24 h. Format: in vitro ADME. The method, then:
Rats were sacrificed by cervical dislocation, hair on the abdomen was shaved, and then abdominal skin was separated and placed into physiological saline. Afterward, subcutaneous tissue (muscle, fat, and vascellum) was removed using surgical scissors and hemostatic forceps and then stored at 4 °C with physiological saline for further investigation. […] Then, 0.6% Tween80 solution was selected as the penetration release medium. Skin tissues were placed between the diffusion cell and receptor cell, and 0.4 mL of quercetin preparations (equivalent to 120 μg of quercetin) was applied on the skin. Penetration medium (0.5 mL) was withdrawn from the receptor cell at 1, 2, 4, 6, 8, 10, 12, and 24 h with the replacement of fresh penetration medium (0.5 mL). Penetration mediums withdrawn at different timepoints were diluted to 7 mL with methanol and determined by HPLC after centrifugation and filtration.

Turning to `C[C@@H]1O[C@@H](OC[C@H]2O[C@@H](Oc3c(-c4ccc(O)c(O)c4)oc4cc(O)cc(O)c4c3=O)[C@H](O)[C@@H](O)[C@@H]2O)[C@H](O)[C@H](O)[C@H]1O` [Rutin], in data set [1], the “anti-tyrosinase activity (in words)” value was “no promising anti-tyrosinase activity” and the IC50 anti-tyrosinase activity is >1000 µg/mL. Besides, in data set [2], the “EC50 DPPH radical scavenging activity” value worked out at 188.28 ± 0.68 µg/mL (≈ 308 µM).

For the compound `O=c1c(O)c(-c2ccc(O)c(O)c2)oc2cc(O)cc(O)c12` [Quercetin], the IC50 anti-tyrosinase activity in data set [1] is 1.59 ± 0.38 µg/mL (≈ 5.26 µM). Moreover, the “EC50 DPPH radical scavenging activity” value in data set [2] came out at 80.75 ± 0.26 µg/mL (≈ 267 µM). Moreover, in data set [3], the “solubility in niosomes, fold higher than in water” value was found to be 1247 fold. Besides, the solubility at 24 h in data set [3] (37 °C, water, thermodynamic from solid) was found to be 0.21 ± 0.14 µg/mL (≈ 0.695 µM); in data set [4] (0.2% SDS aqueous solution, 0.2% SDS, 32 °C, 24 h, read-out: Solubility in SDS Aqueous Solution), 4.58 ± 0.04 µg/mL (≈ 15.2 µM); in data set [4] (0.2% Tween80 aqueous solution, 32 °C, aqueous with cosolvent or surfactant or cyclodextrin, thermodynamic from solid, 0.2% Tween80, 32 °C, 24 h, read-out: Solubility in Tween80 Aqueous Solution), 24.7 ± 2.15 µg/mL (≈ 81.8 µM); in data set [4] (0.3% Tween80 aqueous solution, 0.3% Tween80, 32 °C, 24 h, read-out: Solubility in Tween80 Aqueous Solution), 31.4 ± 0.73 µg/mL (≈ 104 µM); in data set [4] (0.4% Tween80 aqueous solution, 0.4% Tween80, 32 °C, 24 h, read-out: Solubility in Tween80 Aqueous Solution), 41.34 ± 0.19 µg/mL (≈ 137 µM); in data set [4] (0.6% SDS aqueous solution, 32 °C, aqueous with cosolvent or surfactant or cyclodextrin, thermodynamic from solid, 0.6% SDS, 32 °C, 24 h, read-out: Solubility in SDS Aqueous Solution), 6.48 ± 0.44 µg/mL (≈ 21.4 µM). For the same compound, the solubility at 24 h is 56.4 ± 1.42 µg/mL (≈ 186 µM) in data set [4] (0.6% Tween80 aqueous solution, 0.6% Tween80, 32 °C, 24 h, read-out: Solubility in Tween80 Aqueous Solution); 76.1 ± 3.11 µg/mL (≈ 252 µM) in data set [4] (0.8% Tween80 aqueous solution, 32 °C, aqueous with cosolvent or surfactant or cyclodextrin, thermodynamic from solid, 0.8% Tween80, 32 °C, 24 h, read-out: Solubility in Tween80 Aqueous Solution); 76.1 ± 3.11 µg/mL (≈ 252 µM) in data set [4] (0.8% Tween80 aqueous solution, 32 °C, pH 5, aqueous with cosolvent or surfactant or cyclodextrin, thermodynamic from solid, 0.8% Tween80, pH 5.0, read-out: Solubility in pH-0.8%Tween80 Aqueous Solution); 52.4 ± 0.71 µg/mL (≈ 173 µM) in data set [4] (0.8% Tween80 aqueous solution, 32 °C, pH 6.8, aqueous with cosolvent or surfactant or cyclodextrin, thermodynamic from solid, 0.8% Tween80, pH 6.8, read-out: Solubility in pH-0.8%Tween80 Aqueous Solution); 55 ± 6.6 µg/mL (≈ 182 µM) in data set [4] (0.8% Tween80 aqueous solution, pH 7.4, 0.8% Tween80, pH 7.4, read-out: Solubility in pH-0.8%Tween80 Aqueous Solution). In data set [3] (medium: niosomes, from 300 μg/mL loaded and entrapment 87.3 ± 1.6%), the Solubility stood at 261.9 ± 4.8 µg/mL (≈ 867 µM). The “Solubility in Tween80 Aqueous Solution” value in data set [4] (0.1% Tween80, 32 °C, 24 h) stood at 12.19 ± 1.05 µg/mL (≈ 40.3 µM). For the same compound, in data set [4] (0.4% SDS, 32 °C, 24 h), the “Solubility in SDS Aqueous Solution” value was 4.22 ± 0.43 µg/mL (≈ 14 µM). Besides, the “Solubility in pH-0.8%Tween80 Aqueous Solution” value in data set [4] (0.8% Tween80, pH 5.0) is recorded as 79.49 ± 0.41 μg/mL. Moreover, the “quercetin in the penetration release medium (ex vivo penetration)” value in data set [5] is reported as “could not be determined”.

`O=C(O)[C@H]1O[C@@H](Oc2cc3oc(-c4ccc(O)cc4)cc(=O)c3c(O)c2O)[C@H](O)[C@@H](O)[C@@H]1O` [Breviscapine]: in data set [1], the “anti-tyrosinase activity (in words)” value is reported as “no promising anti-tyrosinase activity” and the IC50 anti-tyrosinase activity is >1000 µg/mL. For the same compound, in data set [2], the “EC50 DPPH radical scavenging activity” value was 368.08 ± 1.04 µg/mL (≈ 796 µM).

As for `Cc1cc(C(C)(C)C)c(O)c(C(C)(C)C)c1` [Butylated hydroxytoluene (BHT), Butylated hydroxytoluene, reference compound], in data set [2], the “EC50 DPPH radical scavenging activity” value turned out to be 358.15 ± 1.43 µg/mL (≈ 1630 µM).

For the compound `O=c1c(O)c(-c2cc(O)c(O)c(O)c2)oc2cc(O)cc(O)c12` [Myricetin], the “anti-tyrosinase activity (in words)” value in data set [1] was “no the anti-tyrosinase activity”. The “EC50 DPPH radical scavenging activity” value in data set [2] is 118.63 ± 0.57 µg/mL (≈ 373 µM).

In the case of `O=c1c(O)c(-c2ccc(O)cc2O)oc2cc(O)cc(O)c12` [Morin], in data set [1], the IC50 anti-tyrosinase activity came out at 4.26 ± 0.47 µg/mL (≈ 14.1 µM). Moreover, the “EC50 DPPH radical scavenging activity” value in data set [2] was 123.06 ± 0.48 µg/mL (≈ 407 µM).

In data set [1], `O=c1c(O)c(-c2ccc(O)c(O)c2)oc2cc(O)ccc12` [Festin] had an IC50 anti-tyrosinase activity of 23.10 ± 0.32 µg/mL (≈ 80.7 µM). Besides, the “EC50 DPPH radical scavenging activity” value in data set [2] came out at 83.19 ± 0.33 µg/mL (≈ 291 µM).
